Assay results reported in PMC6270921, “Study on the Cytotoxic Activity of Drimane Sesquiterpenes and Nordrimane Compounds against Cancer Cell Lines” (Molecules, 2014).

What was measured:
[1] = Cell viability, sulforhodamine B assay; type: cell-based; details: human, CCD 841 CoN colon epithelial cells (non-tumoral cell line), 72 h exposure, dilutions 12.5 to 100 μM, non-tumor cell line, read-out: Cytotoxicity IC50, CoN
Experimental: (§1) The cytotoxicity of compounds 1–12 was evaluated in vitro against different cancer cell lines: MCF-7 breast cancer, DU-145 and PC-3 human prostate cancer, and one non-tumor cell line, human colon epithelial cells CCD 841 CoN (CoN). […] Four serial dilutions (from 12.5 to 100 μM) for each sample were evaluated in triplicate.
(§2) The experimental cell cultures were obtained from the American Type Culture Collection (Rockville, MD, USA). MCF-7 cells (breast cancer cell line), PC-3 and DU-145 (prostate cancer cell lines), and human colon epithelial cells CCD 841 CoN (non-tumoral cell line) were grown in Dulbecco’s modified Eagle’s medium (DMEM) containing 10% FCS, 100 U/mL penicillin, 100 μg/mL streptomycin, and 1 mM glutamine. Cells were seeded into 96 well microtiter plates in 100 μL at a plating density of 5 × 10^3 cells/well. After 24 h incubation at 37 °C under a humidified 5% CO2 atmosphere to allow cell attachment, the cells were treated with different concentrations of drugs and incubated for 72 h under the same conditions. Stock solutions of compounds were prepared in ethanol and the final concentration of this solvent was kept constant at 1%. Control cultures received 1% ethanol alone.
(§3) The sulforhodamine B assay was used according to the method of Skehan et al.. Briefly, the cells were set up at 3 × 10^3 cells per well of a 96 200 μL well, flat-bottomed, microplate. Cells were incubated at 37 °C in a humidified 5% CO2/95% air mixture and treated with the compounds at different concentrations for 72 h. At the end of drug exposure, cells were fixed with 50% trichloroacetic acid at 4 °C. After washing with water, cells were stained with 0.1% sulforhodamine B (Sigma-Aldrich, St. Louis, MO, USA), dissolved in 1% acetic acid (50 μL/well) for 30 min, and subsequently washed with 1% acetic acid to remove unbound stain. Protein-bound stain was solubilized with 100 μL of 10 mM unbuffered Tris base, and the cell density was determined using a […] plate reader (wavelength 540 nm). Values shown are the mean ± SD of three independent experiments in triplicate. The software used to calculate the IC50 values was GraphPad (GraphPad Software, San Diego, CA, USA).

[2] = system: DU-145 prostate cancer cell line; test: Cell viability, sulforhodamine B assay; type: cell-based; details: Homo sapiens, 72 h exposure, dilutions 12.5 to 100 μM, read-out: Cytotoxicity IC50, DU145
Experimental: as §1, §2, §3

[3] = system: MCF-7 breast cancer cell line; test: Cell viability, sulforhodamine B assay; type: cell-based; details: Homo sapiens, MCF7, 72 h exposure, dilutions 12.5 to 100 μM, read-out: Cytotoxicity IC50, MCF-7
Experimental: as §1, §2, §3

[4] = system: PC-3 prostate cancer cell line; test: Cell viability, sulforhodamine B assay; type: cell-based; details: Homo sapiens, 72 h exposure, dilutions 12.5 to 100 μM, read-out: Cytotoxicity IC50, PC-3
Experimental: as §1, §2, §3

CoN cells [5] = test: Mitochondrial membrane permeability, rhodamine 123 flow cytometry; type: cell-based, human; details: control treated cells assigned 100%
Excerpt: (§4) Mitochondria play a crucial role in the apoptotic cascade by serving as a convergent center of apoptotic signals originating from both the extrinsic and intrinsic pathways. Changes induced in the mitochondrial membrane potential (MMP) have been reported previously to represent a determinant in the execution of cell death. As polygodial has been described as an inhibitor of mitochondrial ATPase and also as nonionic surfactant. This effect may be determinant in cell death, we has analyzed the effect of compounds 1, 8 and 12 on the mitochondrial membrane potential using flow cytometry with rhodamine 123 stain [24]. […] Similar differences were observed after treatments with compounds 1 and 8 at 100 μM.
(§5) Rhodamine 123, a cationic, voltage-sensitive probe that reversibly accumulates in mitochondria, was used to detect changes in transmembrane mitochondrial membrane potentials. Cells were labelled with 1 μM rhodamine 123 at 37 °C in cell medium for 60 min before terminating the experiment. Cells were detached from the plate, after washing with ice cold PBS, and the samples were analyzed by flow cytometry. Data are expressed in percentage of cells with rhodamine 123 [24].

MCF-7 cells [6] = test: as above; type: cell-based, human; details: control treated cells assigned 100%
Excerpt: as §4, §5

PC-3 cells [7] = test: as above; type: cell-based, human; details: control treated cells assigned 100%
Excerpt: as §4, §5

CoN cells [8] = test: Morphological changes, phase contrast microscope; type: cell-based, human; details: 50 μM compound for 24 h
Experimental: (§6) First, the appearance of morphological changes in the cells treated with 50 μM compound for 24 h was analyzed.

MCF-7 cells [9] = test: Morphological changes, phase contrast microscope; type: cell-based, human; details: MCF-7, 50 μM compound for 24 h
Experimental: as §6

PC-3 cells [10] = test: Morphological changes, phase contrast microscope; type: cell-based, human; details: PC-3, 50 μM compound for 24 h
Experimental: as §6

CoN cells [11] = test: Morphological assessment of cell apoptosis, Hoechst 33342 staining; type: cell-based, human; details: 24 h exposure, fluorescence microscope
Experimental: (§7) Nuclear changes in PC-3, MCF-7 and CoN cells were observed under a fluorescence microscope (200×, Figure 4).
(§8) Briefly, on 24-well chamber slides, 1 × 10^4 cells/mL were cultured and exposed to compounds for 24 h. The control group was also exposed to 1% ethanol. The cells were washed twice with phosphate buffer solution, fixed with 3.7% formaldehyde, and washed again with phosphate buffer solution. Following the addition of 1 μM Hoechst 33342 (Sigma-Aldrich, Santiago, Chile), they were reacted in a dark room at room temperature for 30 min. After washing, they were examined under an immunofluorescence microscope (IX 81 model inverted microscope, Olympus, Santiago, Chile).

MCF-7 cells [12] = test: as above; type: cell-based, human; details: MCF-7, 24 h exposure, fluorescence microscope
Experimental: as §7, §8

PC-3 cells [13] = test: as above; type: cell-based, human; details: PC-3, 24 h exposure, fluorescence microscope
Experimental: as §7, §8

[14] = system: panel of cancer cell lines; test: Cytotoxicity against a panel of cancer cell lines (summary); type: cell-based; details: Homo sapiens; summary statement of the conclusions
Experimental: as §1, §3

[15] = system: Salmonella strains TA 98, TA 2637, and TA 100; details: at highest non-toxic concentration; cited from earlier work

## CC1(C)CCC[C@]2(C)[C@@H](C=O)C(C=O)=CC[C@@H]12 [Compound 1, polygodial]
[1]
  IC50 at 72 h: > 200 µM
[2]
  IC50: 71.4 ± 8.5 µM
[3]
  IC50: 93.7 ± 9.1 µM
[4]
  IC50: 89.2 ± 6.8 µM
CoN cells [5]; compound 50 µM
  percentage of rhodamine 123 stained cells: 111.6% ± 8.9%
CoN cells [5]; compound 50 µM, listed as Comp. 1
  percentage of rhodamine 123 stained cells: 49.1 ± 6.6 %
CoN cells [5]; compound 100 µM
  percentage of rhodamine 123 stained cells: 11.8 ± 2.9 %
MCF-7 cells [6]; MCF-7, compound 50 µM
  percentage of rhodamine 123 stained cells: 77.0% ± 6.5%
MCF-7 cells [6]; MCF-7, compound 50 µM, listed as Comp. 1
  percentage of rhodamine 123 stained cells: 77.0 ± 6.5 %
MCF-7 cells [6]; MCF-7, compound 100 µM
  percentage of rhodamine 123 stained cells: 19.4 ± 1.5 %
PC-3 cells [7]; PC-3, compound 50 µM
  percentage of rhodamine 123 stained cells: 49.1% ± 6.6%
PC-3 cells [7]; PC-3, compound 50 µM, listed as Comp. 1
  percentage of rhodamine 123 stained cells: 111.6 ± 8.9%
PC-3 cells [7]; PC-3, compound 100 µM
  percentage of rhodamine 123 stained cells: 11.9 ± 2.4 %
CoN cells [8]
  morphological changes of cells: severely distorted
MCF-7 cells [9]
  morphological changes of cells: severely distorted
PC-3 cells [10]
  morphological changes of cells: severely distorted
CoN cells [11]
  nuclear changes after Hoechst 33342 staining: chromatin condensation and karyopyknosis
MCF-7 cells [12]
  nuclear changes after Hoechst 33342 staining: chromatin condensation and karyopyknosis
PC-3 cells [13]
  nuclear changes after Hoechst 33342 staining: chromatin condensation and karyopyknosis
[14]
  IC50: < 200 µM
[15]
  mutagenic activity: no mutagenic activity
